Data published in ChEMBL document CHEMBL4431295 (Medchemcomm, 2016).

Columns and labels:
[1] = test system: SK-N-SH; assay: Antiproliferative activity against human SK-N-SH cells after 72 hrs by MTT assay; format: functional, cell-based
[2] = test system: MGC-803; assay: Antiproliferative activity against human MGC803 cells after 72 hrs by MTT assay; format: functional, cell-based; details: MGC-803, 72 h
[3] = test system: HepG2; assay: Antiproliferative activity against human HepG2 cells after 72 hrs by MTT assay; format: functional, cell-based; details: HepG2, 72 h
[4] = test system: GES1; assay: Cytotoxicity against human GES-1 cells assessed as cell growth inhibition after 72 hrs by MTT assay; format: cell-based; details: GES1, 72 h

O=C(/C=C/c1ccncc1)c1ccc(NCc2cn(Cc3ccccc3)nn2)cc1
IC50 [1]: 5.23 µM | IC50 [2]: 17.1 µM | IC50 [3]: 7.02 µM

O=C(/C=C/c1ccc([N+](=O)[O-])cc1)c1ccc(OCc2cn(Cc3ccccc3)nn2)cc1
IC50 [1]: 11.6 µM | IC50 [2]: 29.8 µM | IC50 [3]: 24.4 µM

O=C(/C=C/c1cccc(Cl)c1)c1ccc(OCc2cn(Cc3ccccc3)nn2)cc1
IC50 [1]: 19.6 µM | IC50 [2]: > 64 µM | IC50 [3]: 24 µM

O=C(/C=C/c1cc(Cl)cc(Cl)c1)c1ccc(NCc2cn(Cc3ccccc3)nn2)cc1
IC50 [1]: 20.5 µM | IC50 [2]: 16.8 µM | IC50 [3]: 23.4 µM

O=C(/C=C/c1cccnc1)c1ccc(NCc2cn(Cc3ccc(C(F)(F)F)cc3)nn2)cc1
IC50 [1]: 7.26 µM | IC50 [2]: 7.19 µM | IC50 [3]: 9.24 µM

O=C(/C=C/c1cccnc1)c1ccc(OCc2cn(Cc3ccccc3)nn2)cc1
IC50 [1]: 6.37 µM | IC50 [2]: 10.2 µM | IC50 [3]: 5.22 µM

Nc1ccc(C(=O)/C=C/c2ccc(Cl)cc2)cc1
IC50 [1]: 58.2 µM | IC50 [2]: 61.2 µM | IC50 [3]: 55.6 µM

COc1cc(OC)c(/C=C/C(=O)c2ccc(NCc3cn(Cc4ccccc4)nn3)cc2)c(OC)c1
IC50 [1]: 6.26 µM | IC50 [2]: 6.26 µM | IC50 [3]: 10.4 µM

O=C(/C=C/c1ccccc1F)c1ccc(OCc2cn(Cc3ccccc3)nn2)cc1
IC50 [1]: 28.6 µM | IC50 [2]: 50.6 µM | IC50 [3]: 18.4 µM

O=C(/C=C/c1ccncc1)c1ccc(OCc2cn(Cc3ccccc3)nn2)cc1
IC50 [1]: 7.43 µM | IC50 [2]: 26.1 µM | IC50 [3]: 11.4 µM

O=C(/C=C/c1cccnc1)c1ccc(NCc2cn(Cc3ccccc3C(F)(F)F)nn2)cc1
IC50 [1]: 7.29 µM | IC50 [2]: 3.15 µM | IC50 [4]: 54.7 µM | IC50 [3]: 6.92 µM

O=C(/C=C/c1cccs1)c1ccc(NCc2cn(Cc3ccc(Cl)cc3)nn2)cc1
IC50 [1]: 30.9 µM | IC50 [2]: 29.6 µM | IC50 [3]: 39.2 µM

O=C(/C=C/c1cccnc1)c1ccc(NCc2cn(Cc3ccc(Cl)cc3)nn2)cc1
IC50 [1]: 4.36 µM | IC50 [2]: 7.03 µM | IC50 [3]: 9.32 µM

O=C(/C=C/c1ccc(Cl)cc1Cl)c1ccc(OCc2cn(Cc3ccccc3)nn2)cc1
IC50 [1]: 36.4 µM | IC50 [2]: > 64 µM | IC50 [3]: 27.9 µM
